Results published in PubChem BioAssay (NCI).
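All cell lines were grown in 96-well plates and treated with compound for 48 hours. TGI: concentration producing complete growth inhibition.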

Legend:
Experiment in all cases: NCI tumour cell line growth inhibition, 48 h
MCF7 breast = test system: MCF7 breast
T-47D breast = test system: T-47D breast
HL-60(TB) leukemia = test system: HL-60(TB) leukemia
NCI-H522 lung = test system: NCI-H522 lung
BT-549 breast = test system: BT-549 breast
EKVX NSCLC = test system: EKVX NSCLC
SF-539 CNS = test system: SF-539 CNS
COLO 205 colon = test system: COLO 205 colon
OVCAR-3 ovarian = test system: OVCAR-3 ovarian
TK-10 renal = test system: TK-10 renal
NCI/ADR-RES ovarian = test system: NCI/ADR-RES ovarian
NCI-H460 lung = test system: NCI-H460 lung
UACC-257 melanoma = test system: UACC-257 melanoma
HCT-15 colon = test system: HCT-15 colon
SK-OV-3 ovarian = test system: SK-OV-3 ovarian
DU-145 prostate = test system: DU-145 prostate
CCRF-CEM leukemia = test system: CCRF-CEM leukemia
MALME-3M melanoma = test system: MALME-3M melanoma
SF-295 CNS = test system: SF-295 CNS
NCI-H23 lung = test system: NCI-H23 lung
SK-MEL-28 melanoma = test system: SK-MEL-28 melanoma
UO-31 renal = test system: UO-31 renal
SNB-19 CNS = test system: SNB-19 CNS
OVCAR-5 ovarian = test system: OVCAR-5 ovarian
MDA-N = test system: MDA-N
K-562 leukemia = test system: K-562 leukemia
786-0 renal = test system: 786-0 renal
SN12C renal = test system: SN12C renal
HS 578T breast = test system: HS 578T breast
HOP-62 NSCLC = test system: HOP-62 NSCLC
MDA-MB-231 breast = test system: MDA-MB-231 breast
MDA-MB-435 = test system: MDA-MB-435
IGROV1 ovarian = test system: IGROV1 ovarian
NCI-H226 lung = test system: NCI-H226 lung
CAKI-1 renal = test system: CAKI-1 renal
SK-MEL-5 melanoma = test system: SK-MEL-5 melanoma
KM12 colon = test system: KM12 colon
SNB-75 CNS = test system: SNB-75 CNS
A498 renal = test system: A498 renal
PC-3 prostate = test system: PC-3 prostate
OVCAR-4 ovarian = test system: OVCAR-4 ovarian
LOX IMVI melanoma = test system: LOX IMVI melanoma
HCT-116 colon = test system: HCT-116 colon
UACC-62 melanoma = test system: UACC-62 melanoma
ACHN renal = test system: ACHN renal
SR leukemia = test system: SR leukemia
HT29 colon = test system: HT29 colon
U251 CNS = test system: U251 CNS
SK-MEL-2 melanoma = test system: SK-MEL-2 melanoma
M14 melanoma = test system: M14 melanoma
HCC-2998 colon = test system: HCC-2998 colon
RPMI-8226 leukemia = test system: RPMI-8226 leukemia
SF-268 CNS = test system: SF-268 CNS
SW-620 colon = test system: SW-620 colon
MOLT-4 leukemia = test system: MOLT-4 leukemia
RXF 393 renal = test system: RXF 393 renal
OVCAR-8 ovarian = test system: OVCAR-8 ovarian
HOP-92 NSCLC = test system: HOP-92 NSCLC
A549 NSCLC = test system: A549 NSCLC

Cc1nn(C(=O)c2ccccc2O)c2c1C(c1ccc([N+](=O)[O-])cc1)SC(N)=N2 (centres undefined)
TGI (MCF7 breast): > 10 µM
TGI (T-47D breast): > 10 µM
TGI (HL-60(TB) leukemia): > 10 µM
TGI (NCI-H522 lung): > 10 µM
TGI (BT-549 breast): > 10 µM
TGI (EKVX NSCLC): > 10 µM
TGI (SF-539 CNS): > 2670 nM
TGI (COLO 205 colon): > 10 µM
TGI (OVCAR-3 ovarian): 9.95 µM
TGI (TK-10 renal): > 10 µM
TGI (NCI/ADR-RES ovarian): > 10 µM
TGI (NCI-H460 lung): > 10 µM
TGI (UACC-257 melanoma): > 10 µM
TGI (HCT-15 colon): > 10 µM
TGI (SK-OV-3 ovarian): > 10 µM
TGI (DU-145 prostate): > 10 µM
TGI (CCRF-CEM leukemia): > 9.13 µM
TGI (MALME-3M melanoma): > 10 µM
TGI (SF-295 CNS): > 10 µM
TGI (NCI-H23 lung): > 10 µM
TGI (SK-MEL-28 melanoma): > 10 µM
TGI (UO-31 renal): > 10 µM
TGI (SNB-19 CNS): > 10 µM
TGI (OVCAR-5 ovarian): > 10 µM
TGI (MDA-N): > 10 µM
TGI (K-562 leukemia): > 10 µM
TGI (786-0 renal): > 10 µM
TGI (SN12C renal): > 10 µM
TGI (HS 578T breast): > 10 µM
TGI (HOP-62 NSCLC): > 10 µM
TGI (MDA-MB-231 breast): > 10 µM
TGI (MDA-MB-435): > 10 µM
TGI (IGROV1 ovarian): > 10 µM
TGI (NCI-H226 lung): > 9.22 µM
TGI (CAKI-1 renal): > 10 µM
TGI (SK-MEL-5 melanoma): > 10 µM
TGI (KM12 colon): > 10 µM
TGI (SNB-75 CNS): > 8.41 µM
TGI (A498 renal): > 10 µM
TGI (PC-3 prostate): > 10 µM
TGI (OVCAR-4 ovarian): > 10 µM
TGI (LOX IMVI melanoma): > 10 µM
TGI (HCT-116 colon): > 10 µM
TGI (UACC-62 melanoma): > 10 µM
TGI (ACHN renal): > 8.37 µM
TGI (SR leukemia): > 10 µM
TGI (HT29 colon): > 10 µM
TGI (U251 CNS): > 10 µM
TGI (SK-MEL-2 melanoma): > 10 µM
TGI (M14 melanoma): > 10 µM
TGI (HCC-2998 colon): > 10 µM
TGI (RPMI-8226 leukemia): > 10 µM
TGI (SF-268 CNS): > 10 µM
TGI (SW-620 colon): > 10 µM
TGI (MOLT-4 leukemia): > 10 µM
TGI (RXF 393 renal): > 10 µM
TGI (OVCAR-8 ovarian): > 10 µM
TGI (HOP-92 NSCLC): > 10 µM
TGI (A549 NSCLC): > 10 µM
